{
  "source": "ChEMBL document CHEMBL4507303",
  "about": "“Data for DCP probe TP-004” (2021)",
  "key": {"[1]": {"molecular_target": "Serine/threonine-protein kinase N1 (Homo sapiens) (UniProt Q16512)", "settings": "Compound concentration 1000.0 nM"}, "[2]": {"test_system": "Epidermal growth factor receptor (Homo sapiens), P00533 [UNDEFINED MUTATION]", "sequence (P00533 whole entry, looked up, change not shown)": "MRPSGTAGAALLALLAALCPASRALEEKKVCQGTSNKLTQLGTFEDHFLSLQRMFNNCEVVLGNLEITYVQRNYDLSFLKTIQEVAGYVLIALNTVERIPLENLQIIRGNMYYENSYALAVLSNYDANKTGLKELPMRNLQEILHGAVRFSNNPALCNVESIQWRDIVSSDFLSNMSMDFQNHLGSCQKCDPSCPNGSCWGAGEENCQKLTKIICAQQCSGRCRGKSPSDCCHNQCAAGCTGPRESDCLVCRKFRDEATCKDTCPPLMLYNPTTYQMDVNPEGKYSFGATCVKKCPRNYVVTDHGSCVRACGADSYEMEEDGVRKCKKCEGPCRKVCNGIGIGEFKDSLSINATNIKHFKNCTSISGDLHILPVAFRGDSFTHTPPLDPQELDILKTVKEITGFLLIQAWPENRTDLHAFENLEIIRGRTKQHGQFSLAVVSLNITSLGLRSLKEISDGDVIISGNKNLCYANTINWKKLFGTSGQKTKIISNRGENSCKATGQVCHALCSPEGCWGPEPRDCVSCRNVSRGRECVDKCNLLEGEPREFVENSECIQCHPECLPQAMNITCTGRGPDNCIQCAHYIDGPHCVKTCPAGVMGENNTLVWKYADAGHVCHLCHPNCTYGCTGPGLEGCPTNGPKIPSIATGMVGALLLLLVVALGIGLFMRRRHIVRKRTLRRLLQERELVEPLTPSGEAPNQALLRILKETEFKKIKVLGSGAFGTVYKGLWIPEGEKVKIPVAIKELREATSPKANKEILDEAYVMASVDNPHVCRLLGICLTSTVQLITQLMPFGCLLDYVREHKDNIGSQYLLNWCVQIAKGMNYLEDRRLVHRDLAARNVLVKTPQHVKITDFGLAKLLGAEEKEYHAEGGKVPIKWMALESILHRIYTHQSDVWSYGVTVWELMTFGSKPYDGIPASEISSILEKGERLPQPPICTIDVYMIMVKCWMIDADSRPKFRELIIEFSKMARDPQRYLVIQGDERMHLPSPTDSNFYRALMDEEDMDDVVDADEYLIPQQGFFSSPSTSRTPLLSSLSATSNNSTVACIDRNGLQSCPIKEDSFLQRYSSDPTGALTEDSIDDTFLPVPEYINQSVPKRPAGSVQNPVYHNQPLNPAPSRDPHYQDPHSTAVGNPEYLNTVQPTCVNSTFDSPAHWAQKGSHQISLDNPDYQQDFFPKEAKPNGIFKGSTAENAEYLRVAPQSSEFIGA", "settings": "Compound concentration 1000.0 nM"}, "[3]": {"molecular_target": "Serine/threonine-protein kinase 17B (Homo sapiens) (UniProt O94768)", "sequence (O94768 whole entry)": "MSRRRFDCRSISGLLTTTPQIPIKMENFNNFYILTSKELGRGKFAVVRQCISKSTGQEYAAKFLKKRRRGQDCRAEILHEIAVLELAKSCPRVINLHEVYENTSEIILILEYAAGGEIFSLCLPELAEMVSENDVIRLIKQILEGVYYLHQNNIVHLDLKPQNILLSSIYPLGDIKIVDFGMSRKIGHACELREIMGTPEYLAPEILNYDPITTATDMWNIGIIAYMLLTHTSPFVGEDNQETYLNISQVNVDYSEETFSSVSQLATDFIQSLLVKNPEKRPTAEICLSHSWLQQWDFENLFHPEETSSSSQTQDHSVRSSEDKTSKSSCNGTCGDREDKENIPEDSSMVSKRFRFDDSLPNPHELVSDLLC", "settings": "Compound concentration 1000.0 nM"}, "[4]": {"molecular_target": "Tyrosine-protein kinase Tec (Homo sapiens) (UniProt P42680)", "settings": "Compound concentration 1000.0 nM"}, "[5]": {"molecular_target": "Glycogen synthase kinase-3 beta (Homo sapiens) (UniProt P49841)", "settings": "Compound concentration 1000.0 nM"}, "[6]": {"molecular_target": "Atypical kinase COQ8A, mitochondrial (Homo sapiens) (UniProt Q8NI60)", "settings": "Compound concentration 1000.0 nM"}, "[7]": {"molecular_target": "Cyclin-dependent kinase 9 (Homo sapiens) (UniProt P50750)", "sequence (P50750 whole entry)": "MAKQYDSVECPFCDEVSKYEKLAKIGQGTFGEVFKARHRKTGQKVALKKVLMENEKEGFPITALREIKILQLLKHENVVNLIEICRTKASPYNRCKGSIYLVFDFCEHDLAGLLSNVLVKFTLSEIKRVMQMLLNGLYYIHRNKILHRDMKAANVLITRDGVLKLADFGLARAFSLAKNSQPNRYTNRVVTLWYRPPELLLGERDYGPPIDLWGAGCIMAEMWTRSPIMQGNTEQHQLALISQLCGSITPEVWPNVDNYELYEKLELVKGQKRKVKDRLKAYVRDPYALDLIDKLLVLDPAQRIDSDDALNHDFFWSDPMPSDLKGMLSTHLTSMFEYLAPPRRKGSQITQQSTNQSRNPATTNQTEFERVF", "settings": "Compound concentration 1000.0 nM"}, "[8]": {"test_system": "Tyrosine-protein kinase ABL1 (Homo sapiens), P00519 [Q252H]", "settings": "Compound concentration 1000.0 nM"}, "[9]": {"molecular_target": "Methionine aminopeptidase 2 (Homo sapiens, UniProt P50579)", "sequence (P50579 whole entry)": "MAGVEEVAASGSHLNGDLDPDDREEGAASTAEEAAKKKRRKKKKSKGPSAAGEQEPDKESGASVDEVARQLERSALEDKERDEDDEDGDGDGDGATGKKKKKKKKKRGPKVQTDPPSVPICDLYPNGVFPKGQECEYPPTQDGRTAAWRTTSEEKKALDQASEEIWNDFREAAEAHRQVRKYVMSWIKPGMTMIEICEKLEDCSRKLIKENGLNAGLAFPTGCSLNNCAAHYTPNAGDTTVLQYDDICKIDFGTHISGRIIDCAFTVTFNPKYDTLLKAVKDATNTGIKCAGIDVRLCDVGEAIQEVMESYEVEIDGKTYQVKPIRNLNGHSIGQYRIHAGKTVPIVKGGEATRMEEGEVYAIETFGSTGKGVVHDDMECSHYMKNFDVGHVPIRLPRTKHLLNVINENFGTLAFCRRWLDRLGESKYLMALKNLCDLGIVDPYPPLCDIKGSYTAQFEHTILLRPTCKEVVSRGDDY", "assay": "Biochemical activity-MetAP2 using Mn"}, "[10]": {"molecular_target": "STE20-like serine/threonine-protein kinase (Homo sapiens) (UniProt Q9H2G2)", "settings": "Compound concentration 1000.0 nM"}, "[11]": {"test_system": "Tyrosine-protein kinase ABL1 (Homo sapiens), P00519 [T315I]", "settings": "Compound concentration 1000.0 nM"}, "[12]": {"molecular_target": "Phosphatidylinositol 4,5-bisphosphate 3-kinase catalytic subunit alpha isoform (Homo sapiens) (UniProt P42336)", "sequence (P42336 whole entry, canonical isoform)": "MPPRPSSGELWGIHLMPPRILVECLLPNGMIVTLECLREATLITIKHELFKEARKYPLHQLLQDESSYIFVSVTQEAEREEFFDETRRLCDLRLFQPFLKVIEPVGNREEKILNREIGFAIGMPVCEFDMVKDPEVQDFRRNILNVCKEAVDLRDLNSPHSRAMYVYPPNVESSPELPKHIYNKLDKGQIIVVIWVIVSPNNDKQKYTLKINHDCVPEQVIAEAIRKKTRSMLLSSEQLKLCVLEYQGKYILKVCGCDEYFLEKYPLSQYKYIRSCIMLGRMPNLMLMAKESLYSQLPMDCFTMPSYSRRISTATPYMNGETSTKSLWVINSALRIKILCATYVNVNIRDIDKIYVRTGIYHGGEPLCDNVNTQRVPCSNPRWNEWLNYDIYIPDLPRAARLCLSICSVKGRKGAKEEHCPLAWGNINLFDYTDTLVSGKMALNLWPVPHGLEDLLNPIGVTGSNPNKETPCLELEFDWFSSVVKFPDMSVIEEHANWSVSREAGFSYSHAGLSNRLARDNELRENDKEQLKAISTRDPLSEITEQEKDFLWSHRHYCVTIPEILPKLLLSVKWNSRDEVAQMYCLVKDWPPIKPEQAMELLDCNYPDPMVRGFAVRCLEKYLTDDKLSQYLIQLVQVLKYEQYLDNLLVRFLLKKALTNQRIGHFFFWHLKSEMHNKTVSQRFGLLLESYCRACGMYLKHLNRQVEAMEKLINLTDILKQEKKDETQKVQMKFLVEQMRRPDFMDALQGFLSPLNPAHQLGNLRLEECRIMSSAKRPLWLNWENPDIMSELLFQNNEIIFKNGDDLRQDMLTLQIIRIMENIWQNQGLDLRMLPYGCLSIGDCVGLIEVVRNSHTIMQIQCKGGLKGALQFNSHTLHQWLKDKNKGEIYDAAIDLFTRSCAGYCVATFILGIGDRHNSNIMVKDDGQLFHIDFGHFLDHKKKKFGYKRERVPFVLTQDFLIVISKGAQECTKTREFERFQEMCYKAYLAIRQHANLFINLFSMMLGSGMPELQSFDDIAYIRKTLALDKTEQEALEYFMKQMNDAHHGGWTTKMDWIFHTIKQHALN", "settings": "Compound concentration 1000.0 nM"}, "[13]": {"test_system": "Mast/stem cell growth factor receptor Kit (Homo sapiens), P10721 [V559D]", "settings": "Compound concentration 1000.0 nM"}, "[14]": {"test_system": "Mast/stem cell growth factor receptor Kit (Homo sapiens), P10721 [V559D,T670I]", "settings": "Compound concentration 1000.0 nM"}, "[15]": {"molecular_target": "Leukocyte tyrosine kinase receptor (Homo sapiens) (UniProt P29376)", "settings": "Compound concentration 1000.0 nM"}, "[16]": {"molecular_target": "Serine/threonine-protein kinase ICK (Homo sapiens) (UniProt Q9UPZ9)", "settings": "Compound concentration 1000.0 nM"}, "[17]": {"molecular_target": "TGF-beta receptor type-2 (Homo sapiens) (UniProt P37173)", "settings": "Compound concentration 1000.0 nM"}, "[18]": {"molecular_target": "Serine/threonine-protein kinase PLK2 (Homo sapiens) (UniProt Q9NYY3)", "settings": "Compound concentration 1000.0 nM"}, "[19]": {"molecular_target": "Serine/threonine-protein kinase Sgk1 (Homo sapiens) (UniProt O00141)", "settings": "Compound concentration 1000.0 nM"}, "[20]": {"molecular_target": "Peripheral plasma membrane protein CASK (Homo sapiens) (UniProt O14936)", "settings": "Compound concentration 1000.0 nM"}, "[21]": {"molecular_target": "Tyrosine-protein kinase ABL1 (Homo sapiens) (UniProt P00519)", "settings": "Compound concentration 1000.0 nM"}, "[22]": {"molecular_target": "MAP kinase-activated protein kinase 2 (Homo sapiens) (UniProt P49137)", "settings": "Compound concentration 1000.0 nM"}, "[23]": {"test_system": "Phosphatidylinositol 4,5-bisphosphate 3-kinase catalytic subunit alpha isoform (Homo sapiens), P42336 [C420R]", "sequence (P42336 whole entry C420R, canonical isoform)": "as the sequence (P42336 whole entry, canonical isoform) above, with C420R counted along it", "settings": "Compound concentration 1000.0 nM"}, "[24]": {"molecular_target": "Serine/threonine-protein kinase 16 (Homo sapiens) (UniProt O75716)", "settings": "Compound concentration 1000.0 nM"}, "[25]": {"molecular_target": "Mitogen-activated protein kinase kinase kinase 3 (Homo sapiens) (UniProt Q99759)", "settings": "Compound concentration 1000.0 nM"}, "[26]": {"molecular_target": "Platelet-derived growth factor receptor alpha (Homo sapiens) (UniProt P16234)", "settings": "Compound concentration 1000.0 nM"}, "[27]": {"molecular_target": "5-hydroxytryptamine receptor 2C (Homo sapiens) (UniProt P28335)", "settings": "Compound concentration 10.0 uM"}, "[28]": {"molecular_target": "Dual specificity mitogen-activated protein kinase kinase 1 (Homo sapiens) (UniProt Q02750)", "sequence (Q02750 whole entry)": "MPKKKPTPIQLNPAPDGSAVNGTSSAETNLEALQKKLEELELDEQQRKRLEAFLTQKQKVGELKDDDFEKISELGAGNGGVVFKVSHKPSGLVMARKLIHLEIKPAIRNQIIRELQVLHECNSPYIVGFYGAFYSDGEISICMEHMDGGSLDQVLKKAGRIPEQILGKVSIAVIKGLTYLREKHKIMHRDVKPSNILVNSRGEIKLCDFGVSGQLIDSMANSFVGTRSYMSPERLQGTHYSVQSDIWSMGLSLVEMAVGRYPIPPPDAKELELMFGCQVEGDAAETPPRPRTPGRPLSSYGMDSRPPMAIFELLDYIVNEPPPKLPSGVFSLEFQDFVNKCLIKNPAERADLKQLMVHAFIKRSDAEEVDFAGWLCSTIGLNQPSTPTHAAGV", "settings": "Compound concentration 1000.0 nM"}, "[29]": {"molecular_target": "Serine/threonine-protein kinase PAK 5 (Homo sapiens) (UniProt Q9P286)", "settings": "Compound concentration 1000.0 nM"}, "[30]": {"test_system": "Mast/stem cell growth factor receptor Kit (Homo sapiens), P10721 [D816H]", "settings": "Compound concentration 1000.0 nM"}, "[31]": {"molecular_target": "Casein kinase I isoform alpha (Homo sapiens) (UniProt P48729)", "settings": "Compound concentration 1000.0 nM"}, "[32]": {"molecular_target": "Inhibitor of nuclear factor kappa-B kinase subunit alpha (Homo sapiens) (UniProt O15111)", "settings": "Compound concentration 1000.0 nM"}, "[33]": {"test_system": "Epidermal growth factor receptor (Homo sapiens), P00533 [UNDEFINED MUTATION]", "settings": "Compound concentration 1000.0 nM", "remark": "listed apart in the source"}, "[34]": {"molecular_target": "Proto-oncogene tyrosine-protein kinase ROS (Homo sapiens) (UniProt P08922)", "settings": "Compound concentration 1000.0 nM"}, "[35]": {"molecular_target": "Ribosomal protein S6 kinase alpha-6 (Homo sapiens) (UniProt Q9UK32)", "settings": "Compound concentration 1000.0 nM"}, "[36]": {"test_system": "Leucine-rich repeat serine/threonine-protein kinase 2 (Homo sapiens), Q5S007 [G2019S]", "settings": "Compound concentration 1000.0 nM"}, "[37]": {"molecular_target": "Receptor tyrosine-protein kinase erbB-3 (Homo sapiens) (UniProt P21860)", "settings": "Compound concentration 1000.0 nM"}, "[38]": {"molecular_target": "Uncharacterized serine/threonine-protein kinase SBK3 (Homo sapiens) (UniProt P0C264)", "settings": "Compound concentration 1000.0 nM"}, "[39]": {"molecular_target": "Muscarinic acetylcholine receptor M4 (Homo sapiens) (UniProt P08173)", "sequence (P08173 whole entry)": "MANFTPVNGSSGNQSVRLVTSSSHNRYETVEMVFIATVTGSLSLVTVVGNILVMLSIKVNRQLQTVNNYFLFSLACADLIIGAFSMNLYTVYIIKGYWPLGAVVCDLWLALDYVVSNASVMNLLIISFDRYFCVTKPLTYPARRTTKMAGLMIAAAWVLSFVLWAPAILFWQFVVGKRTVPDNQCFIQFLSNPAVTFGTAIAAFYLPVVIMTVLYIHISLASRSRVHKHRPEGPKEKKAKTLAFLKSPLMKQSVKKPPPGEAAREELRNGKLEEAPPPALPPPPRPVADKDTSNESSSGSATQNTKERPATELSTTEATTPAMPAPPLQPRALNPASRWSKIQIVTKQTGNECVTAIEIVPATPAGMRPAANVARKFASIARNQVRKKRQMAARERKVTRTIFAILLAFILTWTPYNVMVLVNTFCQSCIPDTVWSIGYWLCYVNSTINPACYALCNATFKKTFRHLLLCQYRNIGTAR", "settings": "Compound concentration 10.0 uM"}, "[40]": {"molecular_target": "Interleukin-1 receptor-associated kinase 1 (Homo sapiens) (UniProt P51617)", "settings": "Compound concentration 1000.0 nM"}, "[41]": {"molecular_target": "Cyclin-dependent kinase 7 (Homo sapiens) (UniProt P50613)", "settings": "Compound concentration 1000.0 nM"}, "[42]": {"molecular_target": "Cyclin-dependent kinase-like 3 (Homo sapiens) (UniProt Q8IVW4)", "settings": "Compound concentration 1000.0 nM"}, "[43]": {"molecular_target": "Histamine H2 receptor (Homo sapiens) (UniProt P25021)", "settings": "Compound concentration 10.0 uM"}, "[44]": {"molecular_target": "Interleukin-1 receptor-associated kinase 4 (Homo sapiens) (UniProt Q9NWZ3)", "sequence (Q9NWZ3 whole entry)": "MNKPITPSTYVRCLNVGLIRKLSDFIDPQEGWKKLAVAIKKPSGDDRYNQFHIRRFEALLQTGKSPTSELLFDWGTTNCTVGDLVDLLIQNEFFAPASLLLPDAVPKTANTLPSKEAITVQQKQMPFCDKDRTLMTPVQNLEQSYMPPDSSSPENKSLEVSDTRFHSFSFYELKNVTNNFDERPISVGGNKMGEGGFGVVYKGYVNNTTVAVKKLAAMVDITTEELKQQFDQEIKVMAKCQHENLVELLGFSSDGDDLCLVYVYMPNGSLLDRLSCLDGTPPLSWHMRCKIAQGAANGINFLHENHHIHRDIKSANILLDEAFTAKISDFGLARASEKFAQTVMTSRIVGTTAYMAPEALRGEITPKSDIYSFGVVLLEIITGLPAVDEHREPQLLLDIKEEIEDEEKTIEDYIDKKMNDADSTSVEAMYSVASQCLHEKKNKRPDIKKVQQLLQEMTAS", "settings": "Compound concentration 1000.0 nM"}, "[45]": {"molecular_target": "Phosphatidylinositol 4-phosphate 5-kinase type-1 alpha (Homo sapiens) (UniProt Q99755)", "settings": "Compound concentration 1000.0 nM"}},
  "note": "Activity calls are given as the source filed them. No cut-off for these calls is given here.",
  "data": [
    {"smiles": "Cc1nc(N2CC[C@@H](O)C2)ncc1-c1cc(C(F)(F)F)cc2[nH]ncc12", "note": "[TP-004]", "values": [
      {"measurement": "residual activity", "setting": "[1]", "value": 100, "unit": "%"},
      {"measurement": "residual activity", "setting": "[2]", "value": 100, "unit": "%"},
      {"measurement": "residual activity", "setting": "[3]", "value": 99, "unit": "%"},
      {"measurement": "residual activity", "setting": "[4]", "value": 84, "unit": "%"},
      {"measurement": "residual activity", "setting": "[5]", "value": 65, "unit": "%"},
      {"measurement": "residual activity", "setting": "[6]", "value": 100, "unit": "%"},
      {"measurement": "residual activity", "setting": "[7]", "value": 87, "unit": "%"},
      {"measurement": "residual activity", "setting": "[8]", "value": 79, "unit": "%"},
      {"measurement": "IC50", "setting": "[9]", "value": "7 nM (active)"},
      {"measurement": "residual activity", "setting": "[10]", "value": 98, "unit": "%"},
      {"measurement": "residual activity", "setting": "[11]", "value": 78, "unit": "%"},
      {"measurement": "residual activity", "setting": "[12]", "value": 100, "unit": "%"},
      {"measurement": "residual activity", "setting": "[13]", "value": 58, "unit": "%"},
      {"measurement": "residual activity", "setting": "[14]", "value": 68, "unit": "%"},
      {"measurement": "residual activity", "setting": "[15]", "value": 87, "unit": "%"},
      {"measurement": "residual activity", "setting": "[16]", "value": 100, "unit": "%"},
      {"measurement": "residual activity", "setting": "[17]", "value": 99, "unit": "%"},
      {"measurement": "residual activity", "setting": "[18]", "value": 76, "unit": "%"},
      {"measurement": "residual activity", "setting": "[19]", "value": 49, "unit": "%"},
      {"measurement": "residual activity", "setting": "[20]", "value": 95, "unit": "%"},
      {"measurement": "residual activity", "setting": "[21]", "value": 83, "unit": "%"},
      {"measurement": "residual activity", "setting": "[22]", "value": 95, "unit": "%"},
      {"measurement": "residual activity", "setting": "[23]", "value": 82, "unit": "%"},
      {"measurement": "residual activity", "setting": "[24]", "value": 92, "unit": "%"},
      {"measurement": "residual activity", "setting": "[25]", "value": 82, "unit": "%"},
      {"measurement": "residual activity", "setting": "[26]", "value": 76, "unit": "%"},
      {"measurement": "inhibition", "setting": "[27]", "value": -0.722, "unit": "%"},
      {"measurement": "residual activity", "setting": "[28]", "value": 83, "unit": "%"},
      {"measurement": "residual activity", "setting": "[29]", "value": 99, "unit": "%"},
      {"measurement": "residual activity", "setting": "[30]", "value": 53, "unit": "%"},
      {"measurement": "residual activity", "setting": "[31]", "value": 96, "unit": "%"},
      {"measurement": "residual activity", "setting": "[32]", "value": 76, "unit": "%"},
      {"measurement": "residual activity", "setting": "[33]", "value": 99, "unit": "%"},
      {"measurement": "residual activity", "setting": "[34]", "value": 86, "unit": "%"},
      {"measurement": "residual activity", "setting": "[35]", "value": 100, "unit": "%"},
      {"measurement": "residual activity", "setting": "[36]", "value": 67, "unit": "%"},
      {"measurement": "residual activity", "setting": "[37]", "value": 100, "unit": "%"},
      {"measurement": "residual activity", "setting": "[38]", "value": 100, "unit": "%"},
      {"measurement": "inhibition", "setting": "[39]", "value": 5.7, "unit": "%"},
      {"measurement": "residual activity", "setting": "[40]", "value": 100, "unit": "%"},
      {"measurement": "residual activity", "setting": "[41]", "value": 68, "unit": "%"},
      {"measurement": "residual activity", "setting": "[42]", "value": 100, "unit": "%"},
      {"measurement": "inhibition", "setting": "[43]", "value": -8.45, "unit": "%"},
      {"measurement": "residual activity", "setting": "[44]", "value": 94, "unit": "%"},
      {"measurement": "residual activity", "setting": "[45]", "value": 86, "unit": "%"}
    ]}
  ]
}
